Read-outs that look alike come from different tables or passages of the source.
Experiments:
[1] = Sedation / side effects observed in treated patients (clinical case examples)

CCOC(=O)c1ncn2c1CN(C)C(=O)c1cc(F)ccc1-2 [flumazenil]
low back pain after injection (Example 3: phantom-like pain, patient on alprazolam 6 mg a day, flumazenil 100 μg, 5 minutes after injection, before 7/10): 5/10
effect on midazolam response to pain (Example 4: flumazenil 200 μg iv 5 minutes after midazolam 2 mg iv (ratio 10:1)): without altering the midazolam response to pain
pain after treatment (Example 5: flumazenil 200 μg iv after midazolam 2 mg iv, before 3/10): pain disappeared
pain 25 minutes after treatment (Example 8: further flumazenil 300 μg iv after midazolam 5 mg and flumazenil 500 μg, 25 minutes after treatment): 4/10
pain rating after treatment (Example 8: further flumazenil 300 μg iv ten minutes later, after 5 minutes, before 5/10): 3/10
pain level while moving arm (human, in vivo, iv): 1/10

Cc1nnc2n1-c1ccc(Cl)cc1C(c1ccccc1)=NC2 [alprazolam, 8-chloro-1-methyl-6-phenyl-4H-s-triazolo[4,3-a][1,4] benzodiazepine]
pain rating after treatment (human, in vivo): 4/10
pain remission (human, in vivo): increased period of pain remission
pain response (human, in vivo): sustained results
sedation limiting augmentation of dosage ([1]; Example 1: alprazolam 0.5 mg TID and 2 mg HS): severe patient sedation
sedation limiting augmentation of dosage ([1]; Example 2: alprazolam 0.25 mg QID): severe sedation
side effects ([1]; Example 8: alprazolam 5 mg/day): experienced alprazolam side effects

Cc1ncc2n1-c1ccc(Cl)cc1C(c1ccccc1F)=NC2 [midazolam]
improvement of pain (human, in vivo, iv): 40%
level of pain after treatment (human, in vivo, iv): 3/10
pain level after treatment (human, in vivo, iv): 0/10
pain rating after treatment (human, in vivo, iv): 3/10
sedation ([1]; Example 2: midazolam 2 mg iv): experienced sedation
sedation ([1]; Example 5: midazolam 2 mg iv): did not present any signs of sedation

Source: patent publication US7855196B2 (priority 2005, dated 2010)
